# Results from US20250171405A1, “PYRAZOLYL COMPOUNDS AS KV7 CHANNEL ACTIVATORS” (Biohaven Therapeutics Ltd., priority 2022, published 2025).
# Molecular target: T1, Kv7.2/7.3 (Homo sapiens, UniProt O43525+O43526)
# T1 construct: Kv7.3 is constitutive and Kv7.2 is tetracycline-induced
# Experiment: Kv7.2/7.3 Thallium Flux Assay (FluxOR II Green)
# Assay type: cell-based
# Settings: single concentration of 10 μM; fluorescence at 90 sec normalized to positive control (retigabine, 30 μM); hKv7.2/7.3 cell line
# Source text: The Thallium Flux Assay is used as a surrogate indicator of potassium channel activity.
# The experimental protocol was adapted from the FluxOR™ II Green Potassium Ion Channel Assay User Guide (Pub. No. MAN0016084, Invitrogen). Conditions were optimized for the Kv7.2/7.3 cell line.
# Cell Line: The hKV7.2/7.3 cell line was obtained from Chantest (cat. #CT6147).
# Cell Culture: Kv7.2/7.3 cells were maintained in a media containing DMEM/F12; 50/50 (Fisher 11-330), 10% Fetal Bovine Serum (FBS) (Fisher 26-140), 100 units/mL Penicillin-Streptomycin (Fisher 15-140), 0.005 mg/ml Blasticidin (InvivoGen ant-bl-1), 0.5 mg/mL Geneticin (InvivoGen ant-gn-5), and 0.1 mg/mL Zeocin (Fisher R25001). One day prior to experimentation, cells were plated in 96 well clear bottom plates (Corning cat. #353219) in a media without Blasticidin, Geneticin, or Zeocin. In this cell line Kv7.3 channel expression is controlled by a constitutive promoter. Kv7.2 channel expression was induced by adding tetracycline (Sigma T7660) at a final concentration of 10 ng/mL overnight in a cell culture incubator at 37° C. and 5% CO2. On the day of assay, the cell culture medium in the 96-well plates was replaced by assay buffer containing the thallium-sensitive fluorescent sensor, FluxOR II Green prepared according to manufacturer's instructions. The 96-well plates were then incubated for 1 h at 37° C. Following the incubation, the FluxOR II Green-containing solution was replaced with extracellular solution.
# Test Compound Plates: The test compound is diluted in a mixture of 0.1% DMSO/extracellular solution at a single concentration of 10 μM. Dilutions were made on a Biomek NXP (BECKMAN COULTER). Extracellular solution contained (in mM: 145 NaCl, 4 KCl, 2 CaCl2), 1 MgCl2, 10 HEPES, and 10 Glucose, pH 7.4)
# Measurement and data analysis: Thallium-flux-mediated changes in intracellular fluorescence were made using a plate reader (Enspire, Perkin Elmer) set with an excitation wavelength of 475 nm and an emission wavelength of 530 nm. After a 15 sec baseline measurement, the stimulus buffer containing thallium and potassium was added to the 96-well plate containing FluxOR II Green-loaded cells and test compounds. Fluorescence values at 90 sec were normalized to the positive control (retigabine, 30 μM) and test compound activities were assigned categories according to the formula: “No Activity <0.15, “+” Moderate Activity 0.15-0.7, and “++” High Activity >0.7.
row,SMILES,Kv7.2/7.3 Activity
1,"C[C@@H](C(=O)Nc1n[nH]c(-c2ccc(Cl)s2)c1C1CCC1)C1(C(F)(F)F)CC1 (stereo in doubt) [Compound 5, N-(5-(5-chlorothiophen-2-yl)-4-cyclobutyl-1H-pyrazol-3-yl)-2-(1-(trifluoromethyl)cyclopropyl)propanamide]",+ (“+” Moderate Activity 0.15-0.7)
2,"O=C(CC1CC(F)(F)C1)Nc1n[nH]c(-c2ccc(F)cc2)c1C1CCC1 [Compound 1, N-(4-cyclobutyl-5-(4-fluorophenyl)-1H-pyrazol-3-yl)-2-(3,3-difluorocyclobutyl)acetamide]",++ (“++” High Activity ≥0.7)
3,"O=C(Nc1n[nH]c(-c2ccc(Cl)s2)c1C1CCC1)C1CC(F)(F)C1 [Compound 2, N-(5-(5-chlorothiophen-2-yl)-4-cyclobutyl-1H-pyrazol-3-yl)-3,3-difluorocyclobutane-1-carboxamide]",++ (“++” High Activity ≥0.7)
4,"O=C(Nc1n[nH]c(-c2ccc(Cl)s2)c1C1CCC1)C1CSC1 [Compound 3, N-(5-(5-chlorothiophen-2-yl)-4-cyclobutyl-1H-pyrazol-3-yl)thietane-3-carboxamide]",− (“−” No Activity <0.15)
5,"O=C(Nc1n[nH]c(-c2ccc(Cl)s2)c1C1CCC1)C1CC(C(F)(F)F)C1 (stereo not shown) [Compound 4, N-(5-(5-chlorothiophen-2-yl)-4-cyclobutyl-1H-pyrazol-3-yl)-3-(trifluoromethyl)cyclobutane-1-carboxamide]",++ (“++” High Activity ≥0.7)
6,"O=C(Nc1n[nH]c(-c2ccc(F)cc2)c1C1CCC1)C1CC(F)(F)C1 [Compound 6, N-(4-cyclobutyl-5-(4-fluorophenyl)-1H-pyrazol-3-yl)-3,3-difluorocyclobutane-1-carboxamide]",++ (“++” High Activity ≥0.7)
7,"O=C(Nc1[nH]nc(C2CC(F)(F)C2)c1C1CCC1)OC1CC(F)(F)C1 [Compound 7, 3,3-difluorocyclobutyl (4-cyclobutyl-3-(3,3-difluorocyclobutyl)-1H-pyrazol-5-yl)carbamate]",++ (“++” High Activity ≥0.7)
